Test results reported in PubChem BioAssay AID2060507 (Molecular Pharmacology Branch, DTP, NCI, 2025).

Test system: 519858-162-T-J1-PDC complex spheroid viability
Experiment: Anticancer human tumor 519858-162-T-J1-PDC patient-derived colon adenocarcinoma cell line growth inhibition [GQUAD]
Conditions: for IC50: curve of first compound; for viability, T/C: stronger effect = lower value
How it was run: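 Multi-cell-type spheroids of tumor cells with HUVEC and mesenchymal stem cells, treated with drug combinations. Concentrations descend in half-log steps from near clinical Cmax, or from 10 microM where Cmax is unknown; viability read-out.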

[1] = second compound 0.0316 µM, first compound 0.0316 µM
[2] = second compound 0.0316 µM, first compound 0.1 µM
[3] = second compound 0.0316 µM, first compound 0.316 µM
[4] = second compound 0.0316 µM, first compound 1 µM
[5] = second compound 0.0316 µM, first compound 3.16 µM
[6] = second compound 0.0316 µM, first compound 10 µM
[7] = second compound 0.1 µM, first compound 0.0316 µM
[8] = second compound 0.1 µM, first compound 0.1 µM
[9] = second compound 0.1 µM, first compound 0.316 µM
[10] = second compound 0.1 µM, first compound 1 µM
[11] = second compound 0.1 µM, first compound 3.16 µM
[12] = second compound 0.1 µM, first compound 10 µM
[13] = second compound 0.316 µM, first compound 0.0316 µM
[14] = second compound 0.316 µM, first compound 0.1 µM
[15] = second compound 0.316 µM, first compound 0.316 µM
[16] = second compound 0.316 µM, first compound 1 µM
[17] = second compound 0.316 µM, first compound 3.16 µM
[18] = second compound 0.316 µM, first compound 10 µM
[19] = second compound 1 µM, first compound 0.0316 µM
[20] = second compound 1 µM, first compound 0.1 µM
[21] = second compound 1 µM, first compound 0.316 µM
[22] = second compound 1 µM, first compound 1 µM
[23] = second compound 1 µM, first compound 3.16 µM
[24] = second compound 1 µM, first compound 10 µM
[25] = second compound 3.16 µM, first compound 0.0316 µM
[26] = second compound 3.16 µM, first compound 0.1 µM
[27] = second compound 3.16 µM, first compound 0.316 µM
[28] = second compound 3.16 µM, first compound 1 µM
[29] = second compound 3.16 µM, first compound 3.16 µM
[30] = second compound 3.16 µM, first compound 10 µM
[31] = second compound 10 µM, first compound 0.0316 µM
[32] = second compound 10 µM, first compound 0.1 µM
[33] = second compound 10 µM, first compound 0.316 µM
[34] = second compound 10 µM, first compound 1 µM
[35] = second compound 10 µM, first compound 3.16 µM
[36] = second compound 10 µM, first compound 10 µM
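Note: spheroids exposed to compounds for 7 days.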
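Throughout, for viability, T/C: 100% = DMSO vehicle control viability.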

For `CC1COCCN1c1cc(-c2ccnn2C)c2ccnc(-c3ccn[nH]3)c2n1` (stereo unspecified) + Cc1cnc(CNC(=O)c2c(=O)c3ccc(N4CCCN(C)CC4)nc3n3c2sc2ccccc23)cn1, the IC50 (second compound 0.0316 µM) was 1540 nM, the IC50 (second compound 0.1 µM) was 1720 nM and the IC50 (second compound 0.316 µM) was 173 nM. The IC50 (second compound 1 µM) was 232 nM, the IC50 (second compound 3.16 µM) was under 31.6 nM and the IC50 (second compound 10 µM) was under 31.6 nM. For the same compound, the viability, T/C [1] was 98%, the viability, T/C [2] was 58.7% and the viability, T/C [3] was 77.4%. It also gave a viability, T/C [4] of 60.4%, a viability, T/C [5] of 38.9% and a viability, T/C [6] of 24.4%. For the same compound, the viability, T/C [7] was 58.7%, the viability, T/C [8] was 82.7% and the viability, T/C [9] was 95.9%. For the same compound, the viability, T/C [10] was 67.7%, the viability, T/C [11] was 29.1% and the viability, T/C [12] was 30.9%. The viability, T/C [13] was 112%, the viability, T/C [14] was 52.6% and the viability, T/C [15] was 49.8%. The viability, T/C [16] was 44.2%, the viability, T/C [17] was 28.3% and the viability, T/C [18] was 36.6%. It also gave a viability, T/C [19] of 57.7%, a viability, T/C [20] of 62.4% and a viability, T/C [21] of 43.1%. The viability, T/C [22] was 38.1%, the viability, T/C [23] was 28.2% and the viability, T/C [24] was 26.2%. The viability, T/C [25] was 44.2%, the viability, T/C [26] was 33% and the viability, T/C [27] was 37.4%. The viability, T/C [28] was 37.9%, the viability, T/C [29] was 42.9% and the viability, T/C [30] was 29.8%. For the same compound, the viability, T/C [31] was 45.6%, the viability, T/C [32] was 41.2% and the viability, T/C [33] was 26.7%. It also gave a viability, T/C [34] of 29.1%, a viability, T/C [35] of 28.8% and a viability, T/C [36] of 32.5%.
`O=C(NO)c1cnc(N2CCN(S(=O)(=O)c3ccc4ccccc4c3)CC2)nc1` + Cc1cnc(CNC(=O)c2c(=O)c3ccc(N4CCCN(C)CC4)nc3n3c2sc2ccccc23)cn1 gave an IC50 (second compound 0.0316 µM) of 244 nM, an IC50 (second compound 0.1 µM) of 339 nM and an IC50 (second compound 0.316 µM) of 345 nM. For the same compound, the IC50 (second compound 1 µM) was 173 nM, the IC50 (second compound 3.16 µM) was 107 nM and the IC50 (second compound 10 µM) was under 31.6 nM. The viability, T/C [1] was 119%, the viability, T/C [2] was 72.2% and the viability, T/C [3] was 50.9%. For the same compound, the viability, T/C [4] was 13.3%, the viability, T/C [5] was 0.34% and the viability, T/C [6] was 0.45%. It also gave a viability, T/C [7] of 81.2%, a viability, T/C [8] of 104% and a viability, T/C [9] of 53%. It also gave a viability, T/C [10] of 11.7%, a viability, T/C [11] of 1.16% and a viability, T/C [12] of 1.51%. For the same compound, the viability, T/C [13] was 92%, the viability, T/C [14] was 85.8% and the viability, T/C [15] was 53.8%. The viability, T/C [16] was 8.35%, the viability, T/C [17] was 5.71% and the viability, T/C [18] was 1.25%. The viability, T/C [19] was 88.7%, the viability, T/C [20] was 66.8% and the viability, T/C [21] was 31.8%. For the same compound, the viability, T/C [22] was 6.88%, the viability, T/C [23] was 1.42% and the viability, T/C [24] was 0.68%. For the same compound, the viability, T/C [25] was 68.2%, the viability, T/C [26] was 45.7% and the viability, T/C [27] was 37.1%. It also gave a viability, T/C [28] of 5.54%, a viability, T/C [29] of 3.32% and a viability, T/C [30] of 1.98%. For the same compound, the viability, T/C [31] was 42.8%, the viability, T/C [32] was 44.6% and the viability, T/C [33] was 26.1%. It also gave a viability, T/C [34] of 5.86%, a viability, T/C [35] of 3.74% and a viability, T/C [36] of 2.11%.
`CC1COCCN1c1cc(C2(S(C)(=N)=O)CC2)nc(-c2ccnc3[nH]ccc23)n1` (stereo unspecified) + Cc1cnc(CNC(=O)c2c(=O)c3ccc(N4CCCN(C)CC4)nc3n3c2sc2ccccc23)cn1 gave an IC50 (second compound 0.0316 µM) of 10000 nM, an IC50 (second compound 0.1 µM) of over 10000 nM and an IC50 (second compound 0.316 µM) of over 10000 nM. For the same compound, the IC50 (second compound 1 µM) was over 10000 nM, the IC50 (second compound 3.16 µM) was under 31.6 nM and the IC50 (second compound 10 µM) was under 31.6 nM. The viability, T/C [1] was 90.9%, the viability, T/C [2] was 84.6% and the viability, T/C [3] was 89%. For the same compound, the viability, T/C [4] was 98.5%, the viability, T/C [5] was 48% and the viability, T/C [6] was 67.8%. For the same compound, the viability, T/C [7] was 114%, the viability, T/C [8] was 91.3% and the viability, T/C [9] was 84.3%. For the same compound, the viability, T/C [10] was 59.8%, the viability, T/C [11] was 55.2% and the viability, T/C [12] was 78.5%. The viability, T/C [13] was 79.3%, the viability, T/C [14] was 92.8% and the viability, T/C [15] was 67.8%. The viability, T/C [16] was 82.6%, the viability, T/C [17] was 79.3% and the viability, T/C [18] was 66.6%. For the same compound, the viability, T/C [19] was 48.6%, the viability, T/C [20] was 57.5% and the viability, T/C [21] was 74.4%. For the same compound, the viability, T/C [22] was 44.8%, the viability, T/C [23] was 48.2% and the viability, T/C [24] was 57.7%. For the same compound, the viability, T/C [25] was 35.9%, the viability, T/C [26] was 39% and the viability, T/C [27] was 45.5%. The viability, T/C [28] was 56.4%, the viability, T/C [29] was 51.4% and the viability, T/C [30] was 51.1%. For the same compound, the viability, T/C [31] was 46%, the viability, T/C [32] was 35.6% and the viability, T/C [33] was 62.2%. It also gave a viability, T/C [34] of 41%, a viability, T/C [35] of 58.8% and a viability, T/C [36] of 37.4%.
